Where two headings read alike, the source gives them in different places.
Experiments:
TSPO [1] = biological target: T1, TSPO (Homo sapiens, UniProt P30536); assay: biochemical
Description: (§1) Membrane protein was prepared from human platelets obtained from 4 donor whole blood samples. […] Platelet pellets were homogenised in 10 ml buffer 1 (0.32 mM sucrose, 5 mM Tris base, 1 mM MgCl2, pH 7.4, 4° C.). The homogenates were centrifuged at 48,000×g for 15 minutes at 4° C. in a Beckman J2-MC centrifuge. The supernatant was removed and pellets were re-suspended in at least 10 ml buffer 2 (50 mM Tris base, 1 mM MgCl2, pH 7.4, 4° C.) and washed by centrifugation at 48,000×g for 15 min at 4° C. in buffer 2. Membranes were suspended in 2 ml buffer 2 and the protein concentration was determined using Protein Assay Kit II (Bio Rad cat #500-0002). Aliquots were stored at −80° C. until use.
(§2) Aliquots of membrane suspension were thawed and homogenised with assay buffer 3 (50 mM Tris base, 140 mM NaCl, 1.5 mM MgCl2, 5 mM KCl, 1.5 mM CaCl2, pH 7.4, 37° C.). […] Non-radioactive Compound 1 was diluted on a Beckman Biomek 2000 workstation at 11 serial dilutions ranging from 1 μM to 0.01 nM. GE180 and non-radioactive Compound 2 were diluted at 11 serial dilutions ranging from 100 μM to 1 nM. Total and nonspecific binding assessments were also performed. 160 μL of platelet membranes diluted to 30 μg/mL were added to the assay plate for a final volume of 200 μL/well. Assay plates were incubated at 37° C. for at least one hour with termination of incubation by filtering onto GF/B glass fibre plates (Perkin Elmer; cat #6005177) pre-soaked in 0.1% PEI in saline for 60 minutes. Assay plates were rinsed five to six times with ice cold buffer 4 (50 mM Tris Base, 1.4 mM MgCl2, pH 7.4, 4° C.) on a Perkin Elmer Filtermate 196. Plates were then dried, the bottoms sealed, and 50 μL of MicroScint 20 (Perkin Elmer cat #6013621) was added to each well. After sealing the tops, the plates were allowed to equilibrate for at least 30 minutes and the captured radioactivity was counted on a Perkin Elmer TopCount NTX. Compound 1 and Compound 2 were used as racemates.
(§3) Compound 1 and Compound 2 were resolved into enantiomers and the competitive binding assay was performed using platelets isolated from the same 4 human donor whole blood samples as described in Example 6.

TSPO [2] = biological target: T2, TSPO (Homo sapiens, UniProt P30536, T147A); assay: biochemical
Description: as §1, §2, §3

TSPO [3] = conditions: low:high affinity ratio; resolved enantiomers
Description: as §1, §2, §3

TSPO [4] = conditions: low:high affinity ratio; Compounds 1 and 2 used as racemates
Description: as §1
(§4) Aliquots of membrane suspension were thawed and homogenised with assay buffer 3 (50 mM Tris base, 140 mM NaCl, 1.5 mM MgCl2, 5 mM KCl, 1.5 mM CaCl2, pH 7.4, 37° C.). […] Non-radioactive Compound 1 was diluted on a Beckman Biomek 2000 workstation at 11 serial dilutions ranging from 1 μM to 0.01 nM. GE180 and non-radioactive Compound 2 were diluted at 11 serial dilutions ranging from 100 μM to 1 nM. Total and nonspecific binding assessments were also performed. 160 μL of platelet membranes diluted to 30 μg/mL were added to the assay plate for a final volume of 200 μL/well. Assay plates were incubated at 37° C. for at least one hour with termination of incubation by filtering onto GF/B glass fibre plates (Perkin Elmer; cat #6005177) pre-soaked in 0.1% PEI in saline for 60 minutes. Assay plates were rinsed five to six times with ice cold buffer 4 (50 mM Tris Base, 1.4 mM MgCl2, pH 7.4, 4° C.) on a Perkin Elmer Filtermate 196. Plates were then dried, the bottoms sealed, and 50 μL of MicroScint 20 (Perkin Elmer cat #6013621) was added to each well. After sealing the tops, the plates were allowed to equilibrate for at least 30 minutes and the captured radioactivity was counted on a Perkin Elmer TopCount NTX.

TSPO [5] = biological target: T1, TSPO; assay: biochemical; remark: listed apart in the source
Description: as §1, §4

TSPO [6] = biological target: T2, TSPO; assay: biochemical; remark: listed apart in the source
Description: as §1, §4

TSPO [7] = conditions: in vitro; LABs versus HABs; cited from earlier work
TSPO [8] = conditions: versus [11C]PBR28; cited from earlier work

T2 sequence (P30536 2-169 T147A): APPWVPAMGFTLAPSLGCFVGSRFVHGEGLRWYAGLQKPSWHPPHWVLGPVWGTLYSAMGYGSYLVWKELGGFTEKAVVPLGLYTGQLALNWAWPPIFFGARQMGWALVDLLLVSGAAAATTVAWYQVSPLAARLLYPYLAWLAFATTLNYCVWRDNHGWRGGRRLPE
T1 sequence (P30536 2-169): as the sequence (P30536 2-169 T147A) above, with A146T counted along it

Compound	Ki (TSPO [1])	Ki (TSPO [2])	Low:High (TSPO [3])	other results
CCN(Cc1ccccc1)C(=O)[C@H]1CCCc2c1c1ccccc1n2CCF [Compound 1 E1, (S)—N-benzyl-N-ethyl-9-(2-fluoroethyl)-2,3,4,9-tetrahydro-1H-carbazole-4-carboxamide]	0.005 µM	0.004 µM	1	–
COc1ccccc1CN(C(C)=O)c1cnccc1Oc1ccccc1 [PBR28, N-(2-methoxybenzyl)-N-(4-phenoxypyridin-3-yl)acetamide, reference compound]	–	–	28	–
CCN(Cc1ccccc1)C(=O)[C@@H]1CCCc2c1c1ccccc1n2CCF [Compound 1 E2]	0.125 µM	0.004 µM	32	–
CC(C)N(C)C(=O)[C@H]1CCCc2c1c1ccccc1n2CCF (racemic) [Compound 2, (S)—N-isopropyl-N-methyl-9-(2-fluoroethyl)-2,3,4,9-tetrahydro-1H-carbazole-4-carboxamide]	–	–	–	Low:High (TSPO [4]): 1.02; Ki (TSPO [5]): 0.0449 µM; Ki (TSPO [6]): 0.0438 µM
COc1ccccc1CN(C(C)=O)c1cnccc1Oc1ccccc1 [[3H]PBR28]	–	–	–	lower TSPO affinity in LABs than in HABs (TSPO [7]): more than 10 fold
CCN(Cc1ccccc1)C(=O)[C@H]1CCCc2c1c1ccccc1n2CCF (racemic) [Compound 1, (S)—N-benzyl-N-ethyl-9-(2-fluoroethyl)-2,3,4,9-tetrahydro-1H-carbazole-4-carboxamide]	–	–	–	Low:High (TSPO [4]): 3.24; Ki (TSPO [5]): 0.00598 µM; Ki (TSPO [6]): 0.00185 µM
CC(C)N(C)C(=O)[C@@H]1CCCc2c1c1ccccc1n2CCF [Compound 2 E2]	0.402 µM	0.083 µM	5	–
CCC(C)N(C)C(=O)c1cc2ccccc2c(-c2ccccc2Cl)n1 (stereo not drawn) [PK11195, reference compound]	–	–	1	–
CCC(C)N(C)C(=O)c1cc2ccccc2c(-c2ccccc2Cl)n1 (stereo not drawn) [[11C]PK11195]	–	–	–	in vivo specific binding in monkey brain, lower than that reported for [11C]PBR28 (TSPO [8]): ~80 fold
CC(C)N(C)C(=O)[C@H]1CCCc2c1c1ccccc1n2CCF [Compound 2 E1, (S)—N-isopropyl-N-methyl-9-(2-fluoroethyl)-2,3,4,9-tetrahydro-1H-carbazole-4-carboxamide]	0.023 µM	0.024 µM	1	–
CCN(CC)C(=O)[C@H]1CCCc2c1c1c(OC)cccc1n2CCF (stereo in doubt) [GE180, 9-(2-Fluoro-ethyl)-5-methoxy-2,3,4,9-tetrahydro-1H-carbazole-4-carboxylic acid diethylamide, reference compound]	–	–	3	Low:High (TSPO [4]): 15.44

— US9951011B2, “Carbazole compounds for in vivo imaging” (priority 2013, dated 2018)
